In ChEMBL document CHEMBL1201862, “PubChem BioAssay data set” (2004):
Activity calls are given as the source filed them.

Tests used:
[1] = molecular target: T1, Tyrosine-protein phosphatase non-receptor type 11 (Homo sapiens, UniProt Q06124); experiment: SHP2 phosphatase inhibition, dose response, selectivity assay for STEP inhibitor project, biochemical (AID 602367); format: functional; details: read-out: IC50_Mean
T1 sequence (Q06124 whole entry): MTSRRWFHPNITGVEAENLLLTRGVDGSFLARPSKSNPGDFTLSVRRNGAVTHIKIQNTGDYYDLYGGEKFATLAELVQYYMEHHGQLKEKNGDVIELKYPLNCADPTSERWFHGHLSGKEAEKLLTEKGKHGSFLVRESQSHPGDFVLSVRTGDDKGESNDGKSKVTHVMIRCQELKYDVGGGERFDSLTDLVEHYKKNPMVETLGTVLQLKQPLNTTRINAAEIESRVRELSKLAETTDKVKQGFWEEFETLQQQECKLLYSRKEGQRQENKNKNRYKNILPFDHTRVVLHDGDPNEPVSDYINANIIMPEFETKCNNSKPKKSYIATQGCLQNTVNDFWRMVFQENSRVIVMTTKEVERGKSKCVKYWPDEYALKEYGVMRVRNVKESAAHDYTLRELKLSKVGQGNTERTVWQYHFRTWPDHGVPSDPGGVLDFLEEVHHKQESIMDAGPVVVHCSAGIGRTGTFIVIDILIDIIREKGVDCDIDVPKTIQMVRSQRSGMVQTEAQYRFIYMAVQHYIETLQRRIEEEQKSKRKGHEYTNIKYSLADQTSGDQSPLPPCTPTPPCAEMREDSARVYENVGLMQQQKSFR

[2] = molecular target: T2, Tyrosine-protein phosphatase non-receptor type 5 (Homo sapiens, UniProt P54829); experiment: STEP phosphatase inhibitors, confirmation, biochemical, fluorescence intensity, uHTS hits (AID 602372); format: functional; details: read-out: IC50_Mean
T2 sequence (P54829 whole entry): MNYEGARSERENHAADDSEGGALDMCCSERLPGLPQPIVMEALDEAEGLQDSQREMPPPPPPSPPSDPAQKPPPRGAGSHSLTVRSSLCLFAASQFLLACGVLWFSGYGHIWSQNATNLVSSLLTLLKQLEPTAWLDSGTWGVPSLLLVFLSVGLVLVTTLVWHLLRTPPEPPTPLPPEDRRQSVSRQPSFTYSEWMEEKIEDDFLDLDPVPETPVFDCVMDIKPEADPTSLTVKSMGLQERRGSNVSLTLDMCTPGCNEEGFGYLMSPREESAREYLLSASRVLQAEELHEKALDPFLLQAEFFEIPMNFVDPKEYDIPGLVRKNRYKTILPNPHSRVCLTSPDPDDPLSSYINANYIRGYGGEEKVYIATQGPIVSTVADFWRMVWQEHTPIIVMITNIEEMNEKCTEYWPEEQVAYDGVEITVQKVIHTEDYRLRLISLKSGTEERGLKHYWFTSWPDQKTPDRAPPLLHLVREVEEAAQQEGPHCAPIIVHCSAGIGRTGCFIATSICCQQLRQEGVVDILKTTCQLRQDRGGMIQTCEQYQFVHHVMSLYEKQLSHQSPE

[3] = molecular target: Dual specificity protein phosphatase 3 (Homo sapiens, UniProt P51452); experiment: VHR phosphatase inhibition, dose response, selectivity assay for STEP inhibitor project, biochemical (AID 602374); format: functional; details: read-out: IC50_Mean
Sequence of Dual specificity protein phosphatase 3 (P51452 whole entry): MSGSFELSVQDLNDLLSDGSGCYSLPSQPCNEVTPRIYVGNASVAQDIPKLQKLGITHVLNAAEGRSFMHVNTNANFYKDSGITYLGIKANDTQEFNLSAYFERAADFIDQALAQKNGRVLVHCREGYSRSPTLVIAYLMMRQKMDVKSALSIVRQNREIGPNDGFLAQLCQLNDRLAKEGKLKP

[4] = molecular target: T3, Short transient receptor potential channel 4 (Mus musculus, UniProt Q9QUQ5); experiment: mouse TRPC4 channel activators, dose response, cell-based, HEK293 TRPC4/mu-opioid, Fluo-4 calcium (AID 434937); format: functional
T3 sequence (Q9QUQ5 whole entry): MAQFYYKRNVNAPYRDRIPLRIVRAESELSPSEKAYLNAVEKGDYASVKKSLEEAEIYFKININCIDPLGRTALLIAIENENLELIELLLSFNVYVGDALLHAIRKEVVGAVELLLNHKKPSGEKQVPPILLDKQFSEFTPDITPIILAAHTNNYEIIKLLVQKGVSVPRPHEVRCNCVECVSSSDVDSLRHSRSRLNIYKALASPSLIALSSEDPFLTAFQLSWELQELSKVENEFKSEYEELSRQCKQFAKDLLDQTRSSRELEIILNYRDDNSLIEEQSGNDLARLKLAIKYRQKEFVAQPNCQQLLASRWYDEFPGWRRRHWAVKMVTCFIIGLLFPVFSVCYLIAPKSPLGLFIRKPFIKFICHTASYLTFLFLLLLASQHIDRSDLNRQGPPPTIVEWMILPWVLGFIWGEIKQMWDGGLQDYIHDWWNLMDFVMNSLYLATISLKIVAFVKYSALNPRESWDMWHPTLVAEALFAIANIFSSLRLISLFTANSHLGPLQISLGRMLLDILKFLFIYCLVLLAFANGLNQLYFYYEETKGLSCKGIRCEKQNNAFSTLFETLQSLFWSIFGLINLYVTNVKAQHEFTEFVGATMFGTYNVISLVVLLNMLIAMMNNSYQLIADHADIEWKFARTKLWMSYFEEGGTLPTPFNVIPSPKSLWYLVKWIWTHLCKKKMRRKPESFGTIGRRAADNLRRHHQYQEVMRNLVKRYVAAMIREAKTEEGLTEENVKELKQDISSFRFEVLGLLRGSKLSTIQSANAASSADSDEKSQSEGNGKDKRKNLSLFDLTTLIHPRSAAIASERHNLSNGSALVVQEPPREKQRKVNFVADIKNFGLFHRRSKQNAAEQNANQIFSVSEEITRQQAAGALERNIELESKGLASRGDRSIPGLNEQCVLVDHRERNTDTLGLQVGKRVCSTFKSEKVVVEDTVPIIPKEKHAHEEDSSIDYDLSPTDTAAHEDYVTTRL

[5] = molecular target: Eukaryotic translation initiation factor 4E (Mus musculus, UniProt P63073); experiment: eIF4E–eIF4G protein interaction inhibitors, dose response, biochemical, TR-FRET (AID 855); format: functional;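 note: potency for disrupting eIF4E binding to eIF4GI seen as loss of FRET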
Sequence of Eukaryotic translation initiation factor 4E (P63073 whole entry): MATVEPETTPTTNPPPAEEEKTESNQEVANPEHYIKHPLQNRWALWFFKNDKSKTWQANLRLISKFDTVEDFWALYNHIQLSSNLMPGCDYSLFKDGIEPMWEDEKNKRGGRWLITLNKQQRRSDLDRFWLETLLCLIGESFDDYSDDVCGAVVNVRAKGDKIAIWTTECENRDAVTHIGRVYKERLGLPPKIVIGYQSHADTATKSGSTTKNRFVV

[6] = molecular target: Beta-galactosidase (Escherichia coli, UniProt Q8VNN2); experiment: PubChem AID 485352; format: functional
Sequence of Beta-galactosidase (Q8VNN2 whole entry): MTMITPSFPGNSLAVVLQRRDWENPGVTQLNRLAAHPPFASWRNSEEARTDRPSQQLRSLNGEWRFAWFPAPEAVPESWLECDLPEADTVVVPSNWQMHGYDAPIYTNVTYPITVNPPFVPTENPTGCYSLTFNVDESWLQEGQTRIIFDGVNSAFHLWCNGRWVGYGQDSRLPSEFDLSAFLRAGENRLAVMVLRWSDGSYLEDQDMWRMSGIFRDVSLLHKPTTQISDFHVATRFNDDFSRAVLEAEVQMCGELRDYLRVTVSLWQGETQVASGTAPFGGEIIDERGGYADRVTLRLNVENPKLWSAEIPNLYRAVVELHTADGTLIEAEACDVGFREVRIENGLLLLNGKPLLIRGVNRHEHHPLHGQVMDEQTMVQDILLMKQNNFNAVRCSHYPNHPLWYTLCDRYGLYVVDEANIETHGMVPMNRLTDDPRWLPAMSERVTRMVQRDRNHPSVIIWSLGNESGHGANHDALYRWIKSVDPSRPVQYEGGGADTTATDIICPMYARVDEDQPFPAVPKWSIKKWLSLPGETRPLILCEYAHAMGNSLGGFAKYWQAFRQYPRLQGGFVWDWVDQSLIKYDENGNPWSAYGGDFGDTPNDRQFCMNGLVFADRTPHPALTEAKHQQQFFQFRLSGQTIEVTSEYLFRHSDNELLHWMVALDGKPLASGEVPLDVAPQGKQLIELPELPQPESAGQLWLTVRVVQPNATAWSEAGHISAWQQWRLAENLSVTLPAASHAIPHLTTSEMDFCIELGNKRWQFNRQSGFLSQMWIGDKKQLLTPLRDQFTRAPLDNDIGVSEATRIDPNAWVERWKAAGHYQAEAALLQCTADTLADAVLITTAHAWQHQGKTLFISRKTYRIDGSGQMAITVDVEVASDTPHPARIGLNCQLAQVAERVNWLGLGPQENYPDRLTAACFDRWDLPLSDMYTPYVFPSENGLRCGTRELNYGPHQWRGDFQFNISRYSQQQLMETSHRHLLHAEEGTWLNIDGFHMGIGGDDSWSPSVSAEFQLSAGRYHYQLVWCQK

[7] = molecular target: T4, Type-1 angiotensin II receptor (Homo sapiens, UniProt P30556); experiment: AT1 receptor antagonists, dose response, selectivity assay for APJ receptor antagonist project, cell-based, uHTS hits (AID 463214); format: functional;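 note: antagonist potency against angiotensin II stimulated AT1 response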
T4 sequence (P30556 whole entry): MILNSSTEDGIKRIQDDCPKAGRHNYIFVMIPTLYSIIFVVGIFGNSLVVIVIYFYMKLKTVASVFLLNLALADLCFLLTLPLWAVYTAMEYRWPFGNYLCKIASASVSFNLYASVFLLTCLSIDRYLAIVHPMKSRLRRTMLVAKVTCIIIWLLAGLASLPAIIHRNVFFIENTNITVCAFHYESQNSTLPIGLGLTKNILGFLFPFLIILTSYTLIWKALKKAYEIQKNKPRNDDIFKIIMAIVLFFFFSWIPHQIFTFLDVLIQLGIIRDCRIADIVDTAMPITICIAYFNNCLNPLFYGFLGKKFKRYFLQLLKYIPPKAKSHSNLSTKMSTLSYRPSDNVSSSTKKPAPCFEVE

[8] = molecular target: Glucose-6-phosphate 1-dehydrogenase (Homo sapiens, UniProt P11413); experiment: human G6PD enzyme inhibitors, dose response, selectivity assay for P. falciparum G6PD inhibitor project, biochemical, fluorescence (AID 504792); format: functional
Sequence of Glucose-6-phosphate 1-dehydrogenase (P11413 whole entry): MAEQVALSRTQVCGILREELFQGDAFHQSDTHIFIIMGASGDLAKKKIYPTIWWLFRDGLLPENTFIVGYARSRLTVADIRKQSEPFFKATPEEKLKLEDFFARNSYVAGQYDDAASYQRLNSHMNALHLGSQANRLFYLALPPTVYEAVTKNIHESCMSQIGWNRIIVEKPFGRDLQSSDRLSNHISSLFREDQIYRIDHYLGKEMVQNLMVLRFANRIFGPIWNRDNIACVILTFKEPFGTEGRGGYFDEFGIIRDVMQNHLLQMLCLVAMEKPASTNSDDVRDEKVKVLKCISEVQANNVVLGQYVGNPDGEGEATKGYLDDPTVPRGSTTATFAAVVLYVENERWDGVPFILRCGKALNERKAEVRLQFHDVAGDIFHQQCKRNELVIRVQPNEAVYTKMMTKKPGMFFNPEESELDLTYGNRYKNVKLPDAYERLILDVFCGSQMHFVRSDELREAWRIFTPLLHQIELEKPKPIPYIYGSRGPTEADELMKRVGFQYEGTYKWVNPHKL

[9] = molecular target: T5, Small ubiquitin-related modifier 1 (Homo sapiens, UniProt P63165); experiment: inhibitors of SUMO1 peptide binding, dose response, biochemical, fluorescence polarization, uHTS hits (AID 624382); format: functional; details: read-out: IC50_Mean
T5 sequence (P63165 whole entry): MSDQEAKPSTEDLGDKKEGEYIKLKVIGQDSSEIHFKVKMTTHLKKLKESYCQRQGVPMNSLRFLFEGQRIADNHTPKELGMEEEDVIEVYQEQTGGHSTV

[10] = molecular target: T5, Small ubiquitin-related modifier 1; experiment: inhibitors of SUMO1 partner interactions, dose response, biochemical, FRET (AID 624383); format: functional; details: read-out: IC50_Mean
[11] = molecular target: Melanocortin receptor 4 (Homo sapiens, UniProt P32245); format: functional, cell-based;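 note: Cell-based assay with luminescence read-out, confirmatory dose-response testing for agonist activity of biased ligands at MC4R; human U2OS cells with tagged receptor and beta-arrestin; potency of agonists that increase receptor coupling to beta-arrestin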
Sequence of Melanocortin receptor 4 (P32245 whole entry): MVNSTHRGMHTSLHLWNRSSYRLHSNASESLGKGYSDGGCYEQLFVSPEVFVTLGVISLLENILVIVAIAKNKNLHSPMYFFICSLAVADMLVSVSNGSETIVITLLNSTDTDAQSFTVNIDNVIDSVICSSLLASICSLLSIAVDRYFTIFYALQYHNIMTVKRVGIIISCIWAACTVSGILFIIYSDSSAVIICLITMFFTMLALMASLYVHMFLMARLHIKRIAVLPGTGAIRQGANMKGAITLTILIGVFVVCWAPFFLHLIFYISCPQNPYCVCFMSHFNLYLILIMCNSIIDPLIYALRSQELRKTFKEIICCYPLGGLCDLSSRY

[12] = molecular target: T6, Galanin receptor type 3 (Homo sapiens, UniProt O60755); experiment: Fluorescence-based cell-based primary high throughput dose response assay to identify antagonists of the Galanin Receptor 3 (GalR3).; format: functional
T6 sequence (O60755 whole entry): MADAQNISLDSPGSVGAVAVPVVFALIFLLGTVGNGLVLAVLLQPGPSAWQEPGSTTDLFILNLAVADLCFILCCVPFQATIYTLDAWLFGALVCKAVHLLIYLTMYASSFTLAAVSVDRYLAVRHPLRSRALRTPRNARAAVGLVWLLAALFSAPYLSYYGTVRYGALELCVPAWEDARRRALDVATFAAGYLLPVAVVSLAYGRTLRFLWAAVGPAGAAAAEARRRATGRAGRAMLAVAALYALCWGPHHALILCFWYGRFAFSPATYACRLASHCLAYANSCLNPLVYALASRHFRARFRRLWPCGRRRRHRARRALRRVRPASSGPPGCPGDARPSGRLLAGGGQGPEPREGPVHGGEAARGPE

[13] = cells; format: functional, cell-based; details: HEK-CNG
[14] = Luminescence Cell-Based Dose Response HTS to Identify Activators of Luciferase Translation or Activity in H4 […] Cells. [Related pubchem assays: 1829 (Project Summary), 1814 (Primary HTS)]; format: functional
[15] = test system: H4; experiment: Luminescence Cell-Based Dose Response HTS to Identify Activators of 5'UTR Stem-Loop Driven Prion Protein mRNA Translation in H4 Neuroglioblastoma Cells. [Related pubchem assays: 1829 (Project Summary), 1814 (Primary HTS)]; format: functional; details: Homo sapiens
[16] = molecular target: Dual specificity tyrosine-phosphorylation-regulated kinase 1A (Rattus norvegicus, UniProt Q63470); format: biochemical, Homo sapiens
[17] = test system: H9c2; experiment: cells; format: functional, cell-based; details: Rattus norvegicus, H9c2, Myocardium;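 note: confirmatory concentration-response retest of ultra-high-throughput screening hits for modulation of myocardial damage; cell death induced by hydrogen peroxide oxidative stress; compound pretreatment for 60 min then peroxide exposure for 2 h; potency is for protecting the cells against peroxide damage rather than for killing them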
[18] = molecular target: Paired box protein Pax-8 (Homo sapiens, UniProt Q06710); experiment: inhibitors of PAX8-driven TPO luciferase reporter, dose response, RMG-I cells, cherry-pick (AID 687027); format: functional, cell-based;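 note: luciferase reporter driven by Pax8 target thyroperoxidase promoter measured by SteadyGlo luminescence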
Sequence of Paired box protein Pax-8 (Q06710 whole entry): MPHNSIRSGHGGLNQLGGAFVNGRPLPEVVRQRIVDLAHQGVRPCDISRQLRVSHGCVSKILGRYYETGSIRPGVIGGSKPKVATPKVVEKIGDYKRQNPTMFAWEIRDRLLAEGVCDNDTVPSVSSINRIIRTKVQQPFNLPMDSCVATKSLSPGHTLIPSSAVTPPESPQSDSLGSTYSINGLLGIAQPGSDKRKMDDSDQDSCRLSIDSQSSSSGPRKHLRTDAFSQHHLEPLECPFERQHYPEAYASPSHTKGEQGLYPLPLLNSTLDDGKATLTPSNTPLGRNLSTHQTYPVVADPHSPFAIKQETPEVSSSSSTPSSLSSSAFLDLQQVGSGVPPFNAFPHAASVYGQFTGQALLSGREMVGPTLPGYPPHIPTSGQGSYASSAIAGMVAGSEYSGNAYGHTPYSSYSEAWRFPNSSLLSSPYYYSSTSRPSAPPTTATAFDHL

[19] = IGROV1 ovarian cancer cell cytotoxicity, dose response, PAX8 inhibitor project, plate reader, dry powder samples (AID 743043); format: functional, cell-based; details: IGROV-1
[20] = cytotoxicity in OVCAR8 ovarian cancer cells, dose response, PAX8 project, cell-based, plate reader, dry powder samples (AID 743197); format: functional; details: OVCAR-8
[21] = molecular target: FAD-linked sulfhydryl oxidase ALR (Homo sapiens, UniProt P55789); experiment: inhibitors of human ALR sulfhydryl oxidase, dose response, biochemical, H2O2 detection, luminescence, cherry-pick (AID 493248)
Sequence of FAD-linked sulfhydryl oxidase ALR (P55789 whole entry): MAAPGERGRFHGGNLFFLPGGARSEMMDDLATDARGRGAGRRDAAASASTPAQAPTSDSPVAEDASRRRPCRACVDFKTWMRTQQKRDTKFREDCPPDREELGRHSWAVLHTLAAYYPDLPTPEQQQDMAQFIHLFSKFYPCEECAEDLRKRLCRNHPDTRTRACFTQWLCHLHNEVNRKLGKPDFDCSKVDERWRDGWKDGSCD

CCOC(=O)N1CCC(N(CCN(C)C)C(=S)Nc2cc(Cl)ccc2C)CC1
IC50 [1]: 11.8 µM (active)
IC50 [2]: 32.2 µM (inactive)
IC50 [3]: 2.14 µM (active)

COc1ccc(C2NCCc3[nH]cnc32)cc1 (stereo not drawn)
EC50 [4]: 3.35 µM (active)

CC(=O)Nc1ccc(S(=O)(=O)NCCSc2ccccn2)cc1
IC50 [5]: > 64 µM (inactive)

CCOC(=O)c1c(C2COc3ccccc3O2)csc1NC(=O)c1ccco1 (stereo not drawn)
EC50 [6]: > 40 µM (inactive)
IC50 [7]: > 40 µM (not active)
IC50 [8]: > 80 µM (inactive)

Cc1ccc(Cl)cc1N1CCN(CCN)CC1
EC50 [4]: 0.211 µM (active)

COc1ccc(CSCCN)cc1Cl
EC50 [4]: 5.96 µM (active)

Cc1ccc(S(=O)(=O)N2[C@@H](c3ccc(C(C)(C)C)cc3)C(C(=O)O)=CC[C@H]2c2ccc(Cl)c(Cl)c2)cc1
IC50 [9]: > 66.6 µM (inactive)
IC50 [10]: 18.8 µM (active)

COc1ccccc1CC(=O)N1CCN(CCc2ccccc2)CC1
EC50 [4]: 4.22 µM (active)

CCc1ccc(C2CC(c3ccc(F)cc3)Nc3nc(N)nn32)cc1 (stereo not drawn)
EC50 [11]: 48.1 µM (inactive)

CCc1ccc(C(=O)NNc2ccc(C)c(Cl)c2)cc1
EC50 [6]: > 40 µM (inactive)
IC50 [7]: 2.55 µM (active)

CCCCN(CC)CCCNC(=O)Cn1nc(Cc2cccnc2)c2ccccc2c1=O
EC50 [4]: 1.88 µM (active)

Cc1cc(NC(=O)Cc2ccccc2)c2ccccc2n1
IC50 [12]: 1.3 µM (active)
EC50 [13]: > 29.9 µM (inactive)

O=C(Nc1nc2ccc([N+](=O)[O-])cc2s1)C1CCCO1 (stereo not drawn)
EC50 [14]: 0.224 µM (active)
EC50 [15]: > 120 µM (not active)
AC50 [16]: 0.577 µM (active)

Cc1c(-n2cccc2C=O)cccc1[N+](=O)[O-]
IC50 [5]: 50 µM (inactive)

COc1ccc2c(Cl)c(C(=O)NCc3ccco3)sc2c1
AC50 [16]: 0.273 µM (active)

O=C(Cc1ccc(Cl)cc1)OCc1nnc(-c2ccccc2)o1
IC50 [5]: 50 µM (inactive)

O=C(Cc1ccccc1)OCn1nnc2ccccc2c1=O
IC50 [5]: > 64 µM (inactive)

CC(=O)Nc1cc(-c2ccccc2)cn2c(-c3cccc(C(C)=O)c3)cnc12
IC50 [17]: > 79 µM (inactive)
EC50 [11]: > 89.2 µM (inactive)

O=C(O)C1=CCC=CC1C(=O)O (stereo not drawn)
IC50 [9]: > 66.6 µM (inactive)
IC50 [10]: 5.69 µM (active)

CC(=O)Nc1cc(-c2ccc(S(C)(=O)=O)cc2)cn2c(-c3ccc(F)c(Cl)c3)cnc12
EC50 [11]: > 89.2 µM (inactive)

COc1cccc(NC(=S)N/N=C2\CC3CCC2(C)C3(C)C)c1 (stereo not drawn)
EC50 [6]: > 40 µM (inactive)
IC50 [7]: 27.4 µM (not active)

Cc1ccc(S(=O)(=O)N2CC[C@@H]3[C@H](CO)N(C)c4ccc(-c5ccc(C#N)cc5)cc4[C@@H]32)cc1
AC50 [18]: 7.55 µM (active)
AC50 [19]: 28.6 µM (active)
AC50 [20]: 48.4 µM (active)

CN(C)/C=N/c1nc(-c2ccc3c(c2)OCO3)cs1
AC50 [21]: 10.9 µM (active)
AC50 [16]: 3.64 µM (active)
